Laboratory results from US20230115176A1 (Ra Pharmaceuticals, Inc., priority 2019, published 2023).
Read-outs that look alike come from different tables or passages of the source.

Columns and labels:
Human C5 = biological target: T1, Human C5 (Homo sapiens, UniProt P01031); assay: Surface plasmon resonance (SPR), immobilized human C5 (Example 9, Table 18); format: binding
T1 construct: purchased Complement Technology
Excerpt: Morrison and Boyd in “Organic Chemistry”, 6th edition, Prentice Hall (1992)] and validated for proper structure by mass spectrometry.

purified human C5 = purified human C5 (Homo sapiens, UniProt P01031); assay: Red blood cell (RBC) hemolysis assay, optical, absorbance 412 nm (Example 10, Table 19); format: cell-based; details: antibody-sensitized sheep erythrocytes, […] human C5 depleted sera
[1] = immobilized human C5, equilibrium dissociation constant, read-out: SPR C5 EQ KD
[2] = 0.5 nM purified human C5, absorbance 412 nm, read-out: RBC Hemolysis IC50
[3] = SPR, human C5 immobilized, read-out: equilibrium dissociation constant for interaction with C5
[4] = 0.5 nM human C5, read-out: IC50

T1 sequence (P01031 19-1676): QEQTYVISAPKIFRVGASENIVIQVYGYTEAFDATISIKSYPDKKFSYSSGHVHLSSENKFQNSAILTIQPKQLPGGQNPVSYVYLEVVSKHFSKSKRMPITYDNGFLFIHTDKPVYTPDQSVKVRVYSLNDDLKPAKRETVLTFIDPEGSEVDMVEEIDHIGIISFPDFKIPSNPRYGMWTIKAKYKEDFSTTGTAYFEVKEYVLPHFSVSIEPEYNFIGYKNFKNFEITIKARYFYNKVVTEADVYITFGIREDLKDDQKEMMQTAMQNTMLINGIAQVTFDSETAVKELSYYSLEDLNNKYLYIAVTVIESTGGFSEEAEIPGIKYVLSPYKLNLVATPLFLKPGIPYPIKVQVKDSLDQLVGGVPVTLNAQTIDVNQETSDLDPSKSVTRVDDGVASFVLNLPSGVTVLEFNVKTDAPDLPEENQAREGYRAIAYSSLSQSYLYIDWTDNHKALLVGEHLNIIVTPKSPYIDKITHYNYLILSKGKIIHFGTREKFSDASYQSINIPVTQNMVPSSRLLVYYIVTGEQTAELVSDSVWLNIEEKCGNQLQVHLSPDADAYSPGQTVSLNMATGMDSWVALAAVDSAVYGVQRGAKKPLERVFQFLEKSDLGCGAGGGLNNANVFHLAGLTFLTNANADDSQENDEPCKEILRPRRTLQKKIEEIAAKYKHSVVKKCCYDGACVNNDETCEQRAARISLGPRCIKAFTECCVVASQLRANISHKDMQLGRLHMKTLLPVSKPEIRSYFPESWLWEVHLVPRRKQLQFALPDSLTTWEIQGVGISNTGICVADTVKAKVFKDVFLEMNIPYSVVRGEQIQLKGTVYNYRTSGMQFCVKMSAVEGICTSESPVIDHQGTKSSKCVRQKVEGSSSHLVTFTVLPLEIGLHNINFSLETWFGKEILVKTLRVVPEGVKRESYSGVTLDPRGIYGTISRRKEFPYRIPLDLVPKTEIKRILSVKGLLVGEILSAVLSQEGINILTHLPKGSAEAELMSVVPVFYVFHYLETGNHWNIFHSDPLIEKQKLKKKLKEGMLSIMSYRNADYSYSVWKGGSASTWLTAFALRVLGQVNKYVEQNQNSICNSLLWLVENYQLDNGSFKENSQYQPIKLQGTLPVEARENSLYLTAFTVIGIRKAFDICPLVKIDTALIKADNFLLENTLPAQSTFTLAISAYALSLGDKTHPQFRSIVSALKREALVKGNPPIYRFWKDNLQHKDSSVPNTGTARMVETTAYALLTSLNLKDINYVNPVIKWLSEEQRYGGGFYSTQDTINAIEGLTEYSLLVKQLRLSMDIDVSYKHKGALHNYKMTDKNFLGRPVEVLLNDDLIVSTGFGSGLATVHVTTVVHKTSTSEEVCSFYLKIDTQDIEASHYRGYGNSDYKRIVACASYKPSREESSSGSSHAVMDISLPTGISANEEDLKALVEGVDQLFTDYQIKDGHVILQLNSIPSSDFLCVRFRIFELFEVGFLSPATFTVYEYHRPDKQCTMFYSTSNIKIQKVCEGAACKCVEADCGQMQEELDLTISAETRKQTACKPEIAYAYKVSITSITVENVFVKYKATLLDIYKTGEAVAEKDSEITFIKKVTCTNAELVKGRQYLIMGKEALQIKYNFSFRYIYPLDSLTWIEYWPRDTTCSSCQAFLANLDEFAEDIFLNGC
purified human C5, sequence (P01031 19-1676): as above

Row | Kd (Human C5; [1]) [nM] | Kd (Human C5; [3]) [nM] | Compound | IC50 (purified human C5; [2]) [nM] | IC50 (purified human C5; [4]) [nM]
1 | 330 | – | COc1ccc(NC(=O)NC(C(=O)O)c2cccc(OC)c2O)cc1OCCCC(C)C (centres unmarked) [Compound C5INH-0501] | 468 | –
2 | 1400 | – | CNc1cccc(CNC(=O)Nc2ccc(OC)c(OCCCC(C)C)c2)c1 [Compound C5INH-0497] | 913 | –
3 | 510 | – | COc1ccc(NC(=O)NCc2ccnc3c2ccn3C(C)=O)cc1OCCCC(C)C [Compound C5INH-0436] | 1700 | –
4 | 102 | – | COc1ccc(NC(=O)NCc2ccnc(OCCN(C)C)c2)cc1OCCCC(C)C [Compound C5INH-0383] | 293 | –
5 | 16 | < 20 | COc1ccc(NC(=O)NCc2cccc3c2ccn3CC(=O)N(C)C)cc1OCCCC(C)C [Compound C5INH-0516] | 127 | –
6 | 27 | – | COc1ccc(NC(=O)NCc2cccc3c2ccn3CCCN(C)C)cc1OCCCC(C)C [Compound C5INH-0524] | 65 | –
7 | 10.2 | < 20 | COc1ccc(CNC(=O)Nc2ccc(OC)c(OCCCC(C)C)c2)c(OC)c1 [Compound C5INH-0348] | 72.5 | –
8 | 2060 | – | COC(=O)c1cc(OC)c(OCCCC(C)C)cc1NC(=O)N[C@@H](CO)c1ccccc1 [Compound C5INH-0397] | 1380 | –
9 | 225 | – | COc1ccc(NC(=O)NCc2ccc3c(N)n[nH]c3c2)cc1OCCCC(C)C [Compound C5INH-0458] | 416 | –
10 | 760 | – | COc1ccc(NC(=O)N[C@H](CO)c2ccccc2)cc1C(F)C(F)CCC(C)C (some centres unmarked) [Compound C5INH-0406] | 683 | –
11 | 98 | – | COc1ccc(NC(=O)NCc2ccnc(N)c2)cc1OCCCC(C)C [Compound C5INH-0333] | 442 | –
12 | 25 | – | COc1ccc(NC(=O)NC(CO)c2cccc(OC)c2O)cc1OCCCC(C)C (centres unmarked) [Compound C5INH-0486] | – | 3
13 | 220 | – | COc1ccc(NC(=O)NCc2ccnc(N3CCCC(O)C3)c2)cc1OCCCC(C)C (centres unmarked) [Compound C5INH-0403] | 2990 | –
14 | 62 | – | COc1ccc(NC(=O)NCc2ccnc3c2ccn3CCCN(C)C)cc1OCCCC(C)C [Compound C5INH-0491] | 83.5 | –
15 | 313 | – | COc1ccc(NC(=O)NCc2ccc(OCCN(C)C)cc2)cc1OCCCC(C)C [Compound C5INH-0318] | 251 | –
16 | 330 | – | COc1ccc(CNC(=O)Nc2ccc(OC)c(OCCCC(C)C)c2)c(O)c1 [Compound C5INH-0485] | 46.9 | –
17 | 190 | – | COc1ccc(NC(=O)NCc2cccc3nc[nH]c23)cc1OCCCC(C)C [Compound C5INH-0317] | 319 | –
18 | 800 | – | COc1ccc(NC(=O)NCc2ccccc2N)cc1OCCCC(C)C [Compound C5INH-0343] | 3040 | –
19 | 31 | – | COc1ccc(NC(=O)NCc2ccnc3c2ccn3CC2CCCN2C)cc1OCCCC(C)C (centres unmarked) [Compound C5INH-0545] | 89.5 | –
20 | 95 | – | COc1ccc(NC(=O)NCc2cccc(OCCN(C)C)c2)cc1OCCCC(C)C [Compound C5INH-0462] | 113 | –
21 | 650 | – | COc1cc(CN(C)C(C)=O)c(NC(=O)NCc2ccnc3[nH]ccc23)cc1OCCCC(C)C [Compound C5INH-0527] | 2270 | –

Row | Kd (Human C5; [1]) [nM] | Kd (Human C5; [3]) [nM] | Compound | IC50 (purified human C5; [2]) [nM] | IC50 (purified human C5; [4]) [nM]
22 | 1480 | – | COc1ccc(CNC(=O)Nc2ccc(OC)c(OCCCC(C)C)c2)cn1 [Compound C5INH-0498] | 4640 | –
23 | 40 | – | COc1ccc(NC(=O)NCc2cccnc2OC)cc1OCCCC(C)C [Compound C5INH-0310] | 203 | –
24 | 164 | – | COc1ccc(NC(=O)N[C@@H](CO)c2ccccc2)cc1NCCCC(C)C [Compound C5INH-0336] | 473 | –
25 | 50 | – | COc1ccc(NC(=O)NC(CO)c2cc(F)ccc2O)cc1OCCCC(C)C (centres unmarked) [Compound C5INH-0315] | 13.7 | < 20
26 | 578 | – | COc1ccc(NC(=O)NCc2ccc(Cn3ccnc3)cc2)cc1OCCCC(C)C [Compound C5INH-0460] | 725 | –
27 | 840 | – | CCS(=O)(=O)NCCn1ccc2c(CNC(=O)Nc3ccc(OC)c(OCCCC(C)C)c3)ccnc21 [Compound C5INH-0410] | 568 | –
28 | 316 | – | COc1cc(CNC(C)=O)c(NC(=O)NCc2ccnc3[nH]ccc23)cc1OCCCC(C)C [Compound C5INH-0504] | 318 | –
29 | 184 | – | COc1ccc(NC(=O)NCc2ccc(N(C)CC(N)=O)cc2)cc1OCCCC(C)C [Compound C5INH-0446] | 2710 | –
30 | 59 | – | COc1ccc(NC(=O)NCc2ccnc(NCCN3CCOCC3)c2OC)cc1OCCCC(C)C [Compound C5INH-0452] | 95.5 | –
31 | 81 | – | COc1ccc(NC(=O)NCc2cccc3[nH]ccc23)cc1OCCCC(C)C [Compound C5INH-0537] | 138 | –
32 | 2780 | – | COc1ccc(NC(=O)N(CCN2CCOCC2)Cc2cccc3c2ccn3CCN2CCOCC2)cc1OCCCC(C)C [Compound C5INH-0438] | 3000 | –
33 | 430 | – | COc1cc(CCCCN(C)C)c(NC(=O)N[C@@H](CO)c2ccccc2OC)cc1OCCCC(C)C [Compound C5INH-0539] | 617 | –
34 | 40 | – | COc1ccc(NC(=O)NCc2cccc(O)c2O)cc1OCCCC(C)C [Compound C5INH-0476] | 8.5 | < 20
35 | 20 | – | COc1ccc(NC(=O)NCc2ccc(O)cc2O)cc1OCCCC(C)C [Compound C5INH-0311] | 27 | –
36 | 420 | – | COc1ccc(NC(=O)NCc2ccnc(NCCN(C)C)c2)cc1OCCCC(C)C [Compound C5INH-0389] | 1310 | –
37 | 102 | – | COc1ccc(NC(=O)N[C@@H](CO)c2ccccc2)cc1C(O)CCCC(C)C (some centres unmarked) [Compound C5INH-0367] | 475 | –
38 | 42 | – | COc1cc(CNC(C)=O)c(NC(=O)NCc2ccnc3c2ccn3CCCN(C)C)cc1OCCCC(C)C [Compound C5INH-0547] | 287 | –
39 | 110 | – | COc1ccc(NC(=O)NCc2ccnc3c2ccn3CCNS(C)(=O)=O)cc1OCCCC(C)C [Compound C5INH-0409] | 477 | –
40 | 180 | – | COc1ccc(NC(=O)NCc2cccc(CO)c2)cc1OCCCC(C)C [Compound C5INH-0342] | 1540 | –
41 | 14 | < 20 | COc1ccc(NC(=O)NCc2cccc3c2ccn3Cc2ccncc2)cc1OCCCC(C)C [Compound C5INH-0518] | 300 | –
42 | 1160 | – | CC(C)CCCOc1cc(NC(=O)N[C@@H](CO)c2ccccc2)ccc1N [Compound C5INH-0431] | 3790 | –

Row | Kd (Human C5; [1]) [nM] | Kd (Human C5; [3]) [nM] | Compound | IC50 (purified human C5; [2]) [nM] | IC50 (purified human C5; [4]) [nM]
43 | 800 | – | COc1ccc(NC(=O)NCc2ccc(N3CCN(C)CC3)cc2)cc1OCCCC(C)C [Compound C5INH-0420] | 403 | –
44 | 970 | – | COc1cccc(C2CCCN2C(=O)Nc2ccc(OC)c(OCCCC(C)C)c2)c1 (centres unmarked) [Compound C5INH-0388] | 970 | –
45 | 37 | – | COc1ccc(NC(=O)NCc2cccc3c2ccn3CCN2CCOCC2)cc1OCCCC(C)C [Compound C5INH-0437] | 81.5 | –
46 | 79 | – | COc1ccc(NC(=O)NCc2ccnc3c2ccn3CC(=O)N(C)C)cc1OCCCC(C)C [Compound C5INH-0538] | 62.1 | –
47 | 600 | – | COc1ccc(NC(=O)NCc2cccc(NC(C)=O)c2)cc1OCCCC(C)C [Compound C5INH-0496] | 400 | –
48 | 181 | – | COc1ccc(NC(=O)NCc2ccnc(OCCN)c2)cc1OCCCC(C)C [Compound C5INH-0382] | 312 | –
49 | 1660 | – | COc1ccc(NC(=O)NCc2ccc(CN3CCOCC3)cc2)cc1OCCCC(C)C [Compound C5INH-0421] | 4590 | –
50 | 1910 | – | COCc1cccc(CNC(=O)Nc2ccc(OC)c(OCCCC(C)C)c2)c1 [Compound C5INH-0502] | 3090 | –
51 | 75 | – | COc1ccc(NC(=O)NCc2ccc3c(c2)OCCO3)cc1OCCCC(C)C [Compound C5INH-0340] | 992 | –
52 | 293 | – | COc1ccc(NC(=O)NC(CO)c2cccc(CN)c2)cc1OCCCC(C)C (centres unmarked) [Compound C5INH-0373] | 1520 | –
53 | 770 | – | COc1ccc(F)cc1CNC(=O)Nc1ccc(OC)c(OCCCC(C)C)c1 [Compound C5INH-0484] | 150 | –
54 | 257 | – | COCCNc1cc(CNC(=O)Nc2ccc(OC)c(OCCCC(C)C)c2)ccn1 [Compound C5INH-0390] | 698 | –
55 | 261 | – | COc1ccc(NC(=O)NCc2ccncc2OCCCN(C)C)cc1OCCCC(C)C [Compound C5INH-0402] | 1340 | –
56 | 364 | – | COc1ccc(NC(=O)NC(CO)c2cc(NC(C)=O)ccc2OC)cc1OCCCC(C)C (centres unmarked) [Compound C5INH-0489] | 177 | –
57 | 29 | – | COc1ccc(NC(=O)NCc2cccc(OC)c2O)cc1OCCCC(C)C [Compound C5INH-0456] | – | 7
58 | 100 | – | COc1ccc(NC(=O)NC(CO)c2cc(N)ccc2OC)cc1OCCCC(C)C (centres unmarked) [Compound C5INH-0488] | 12 | < 20
59 | 82 | – | COc1ccc(NC(=O)NCc2cccc(F)c2O)cc1OCCCC(C)C [Compound C5INH-0472] | 16 | < 20
60 | 550 | – | COc1cc(F)ccc1CNC(=O)Nc1ccc(OC)c(OCCCC(C)C)c1 [Compound C5INH-0298] | 269 | –
61 | 190 | – | COc1ccc(NC(=O)N2CCc3ccc(O)cc3C2)cc1OCCCC(C)C [Compound C5INH-0385] | 1280 | –
62 | 334 | – | COc1ccc(NC(=O)NCc2cccc3c2ncn3S(=O)(=O)c2ncc[nH]2)cc1OCCCC(C)C [Compound C5INH-0500] | 556 | –
